Entries after “also recorded” stand apart in the source; their conditions may differ.
Key:
APP/PS1 model of AD = details: cited from earlier work
[1] = system: clusterin expression in OPCs; experiment: Clusterin expression in treated primary OPCs by qPCR; type: cell-based, mouse; details: for clusterin expression in OPCs by qPCR (FIG. 7): 10 ng/ml TNFα 3 h, 10 μM H2O2 3 h, 3 μM Aβ 2 h, apoptotic cells 1:1 6 h, 100 μg/ml myelin debris 4 h; for clusterin expression in OPCs by qPCR (FIG. 12): 4-hour in vitro treatment: 3 μM Aβ, 100 μg/ml myelin, 10 ng/ml TNFα or IFNγ, 10 μM H2O2; for effect of phagocytosis block on clusterin upregulation by myelin debris or apoptotic cells in OPCs: Cytochalasin D 1 μM with 100 μg/ml myelin debris
Method: FIGS. 7A-7F: Macromolecules and protein aggregates cause OPCs to upregulate clusterin. OPCs treated with 10 ng/ml TNFα for 3 hours (FIG. 7A), 10 μM H2O2 for 3 hours (FIG. 7B), 3 μM […] for 2 hours (FIG. 7C), a 1:1 ratio of apoptotic cells for 6 hours (FIG. 7D), 100 μg/ml myelin debris for 4 hours (FIG. 7E), or 100 μg/ml myelin debris and 1 μM Cytochalasin D for 4 hours (FIG. 7F). Clusterin transcript quantity was measured using qPCR. N=1-2 independent experiments. n=4-8 samples/condition. All data was analyzed using a repeated measures t-test. ns: not significant; CytoD: Cytochalasin D. *p<0.05, **p<0.01.
FIGS. 12A-12I: Phagocytosis of extracellular debris drives clusterin expression in OPCs. FIG. 12A. Representative images of OPCs (PDGFRα in green, Olig2 in red) surrounding Aβ plaques (n=4; Scale bar=20 μm). FIG. 12B. Representative orthogonal view of CypHer-labeled Aβ (white) inside an OPC (PDGFRα in green. Olig2 in red) following injection of Aβ (n=6; Scale bar=10 μm). Representative images (FIG. 12C) and quantification (FIG. 12D) of clusterin expression (red) in the ipsilateral (CypHer-Aβ injected: green) and contralateral (FITC injected; green) hemispheres following injection (n=6 mice: Scale bar=100 μm) FIG. 12E. qPCR analysis of clusterin expression in OPCs following a 4-hour in vitro treatment with 3 μM Aβ and the phagocytosis blocker CytoD (1 μM) or vehicle control (n=24). f, Quantification of clusterin protein in OPCs following 72-hour treatment with 3 μM Aβ or vehicle control (n=10). qPCR analysis of clusterin expression in OPCs following a 4-hour in vitro treatment with 100 μg/ml myelin (FIG. 12G), cytokines (10 ng/ml TNFα or 10 ng/ml IFNγ; FIG. 12H) or 10 μM H2O2 (FIG. 12I) and CytoD (1 μM) or vehicle control (n=4-19).
Oligomeric […] Drives Expression of Clusterin in OPCs Given the impact of clusterin on OPCs differentiation in vitro, and the evidence supporting that myelin is impacted in AD (Roher et al., 2002; Desai et al., 2009; Desai et al., 2010; Zhan et al., 2014), we wanted to understand what factors initiate expression of clusterin in OPCs. We treated primary OPCs with TNFa, H2O2, oligomeric Aβ, myelin debris, and apoptotic cells and monitored expression of clusterin by qPCR. These treatments were selected because of their association with AD pathology (Sengupta et al., 2016; Ahmad et al., 2017; Chang et al., 2017). […] In order to test if phagocytosis was required to mediate the upregulation of clusterin, the same experiment was repeated in the presence of Cytochalasin D to block actin polymerization and prevent engulfment (Axline & Reaven, 1974; Soldati & Schliwa, 2006).
We next investigated whether Aβ treatment increases clusterin expression in OPCs. […] We noted that increase in clusterin expression was not specific to the phagocytic clearance of Aβ oligomers, as we also observed it when OPCs engulfed cellular debris.

OPCs (OLIG2+/PDGFRα+) = experiment: Tamoxifen-induced YFP labelling of OPCs in PDGFRα-CreER; R26-EYFP reporter mice; type: in vivo, mouse; details: 2 tamoxifen injections 3 days apart, counted ten days after the first injection, adult mice
Method: FIG. 1A is a representative image of YFP labeled OPCs (PDGFRα+Olig2+) cells following 2 tamoxifen injections. […] FIG. 1B is a graph of percent of OPCs expressing YFP following 0, 1, 2, or 3 tamoxifen injections. Each injection was given 3 days apart. n=2-3 mice/group.
To investigate the optimal dose of tamoxifen required for the reporter expression, we treated adult mice (6 weeks old) with 1, 2, or 3 tamoxifen injections (each injection was administered 3 days apart) and counted the number of YFP positive OPCs (OLIG2+/PDGFRα+) ten days after the first injection (see FIG. 1B).

clusterin = details: patients with prostate cancer, Phase 3 clinical trial; cited from earlier work
[2] = system: clusterin expression in the corpus callosum; experiment: Cuprizone model of demyelination, clusterin immunofluorescence in the corpus callosum; type: in vivo; details: 5 weeks cuprizone diet then 1 week normal chow vs naïve mouse
Excerpt: FIG. 9A is a photomicrograph showing clusterin expression (white) in the corpus callosum of a naïve mouse and a mouse following 5-weeks of cuprizone diet followed by 1-week of normal chow to allow remyelination to begin. FIG. 9B is a bar graph showing quantification of clusterin coverage of the corpus callosum depicted in FIG. 9A. N=1 independent experiment, n=5 mice per group. Data analyzed using an unpaired t-test. ***p<0.001. Error bars represent standard error of the mean.
Based on preliminary data, it is anticipated that genetic and the therapeutic silencing of clusterin ameliorate the pathology observed in the 5×FAD mice. If a difference in the number of oligodendrocytes and myelination is undetected, the 5×FAD are tested with the cuprizone model of demyelination. Diet supplemented with cuprizone (5 weeks at 0.3% w/w) induces extensive demyelination of the medial corpus callosum (Doucette et al., 2010). However, demyelination induced in this manner is reversible, as remyelination occurs following the removal of the drug. […] Sections of the medial corpus callosum (midline region above the for mix and between the lateral ventricles) are stained as proposed herein above to quantify OPCs and oligodendrocytes at the end of cuprizone treatment as well as 0.5, 1, 1.5, and 2 weeks following the removal of cuprizone, as described (see Fernandez-Castaneda et al., 2020).

IL-9 secretion by OPCs = experiment: Luminex Assay on the supernatant of OPCs (cytokine and growth factor secretion); type: cell-based, mouse; details: clusterin 8 μg/mL vs vehicle
Method: (§1) FIGS. 14A-14D: Clusterin inhibits differentiation by blocking IL-9 production. FIG. 14A. Quantification of cytokines present in the supernatant from OPCs treated with 8 μg/mL clusterin or vehicle control (n=6). Expression of Mbp (FIG. 14B), Plp1 (FIG. 14C), and Myrf (FIG. 14D), measured by qPCR in OPCs cultured in proliferation media (OPC Vehicle), differentiation media supplemented with vehicle (OLG Vehicle), or 8 μg/ml of is clusterin (OLG CLU), or 100 ng/ml IL-9 (OLG IL-9), or 8 μg/ml of clusterin and 100 ng/ml IL-9 (OLG CLU+IL-9) for 72 hours (n=11).
We next investigated what factors might be mediating clusterin's inhibition of OPC differentiation.
To identify whether clusterin can modify the composition of the OPC secretome, an unbiased multiplex analysis on the conditioned media of OPCs treated with vehicle or clusterin for 1-3 days was performed. […] IL-9 is a growth factor for T-cell subsets 64, and IL-9 receptor is expressed by OPCs in vivo. However, production and secretion of IL-9 by OPCs has not been previously reported.

OPCs [3] = experiment: OPC differentiation, MBP positive oligolineage cells by immunofluorescence; type: cell-based, mouse; details: clusterin 8 μg/ml, 72 hours, differentiation media
Method: (§2) FIGS. 6A-6D: Clusterin inhibits OPC differentiation. FIG. 6A is a series of bar graphs showing expression of Mbp, Pip1, Cnp, and Myrf, measured by qPCR in cells cultured in proliferation media (OPC_Veh), differentiation media (OLG_Veh), or differentiation media supplemented with 8 μg/ml of clusterin (OLG_Clu). Data was analyzed using a mixed-effects analysis followed by a Tukey's multiple comparisons test. N=3 individual experiments, n=7 samples per group. FIG. 6B is a series of representative fluorescence micrograph images of cells cultured in differentiation media (Vehicle) or differentiation media supplemented with 8 μg/ml of clusterin (Clusterin). […] FIG. 6C is a bar graph of the quantification of the differentiation efficiency of cells depicted in FIG. 6B. […] Data was is analyzed using a repeated measures t-test. […]
(§3) FIGS. 13A-13G: Exogenous clusterin inhibits OPC differentiation. Expression of Mbp (FIG. 13A), Plp1 (FIG. 13B), Cnp (FIG. 13C), and Myrf (FIG. 13D), measured by qPCR in OPCs or OLGs treated with vehicle or 8 μg/ml of clusterin for 72 hours (n=7). Representative images (FIG. 13E) and quantification (FIG. 13F) of MBP expression in cells treated with or without 8 μg/ml of clusterin for 72 hours (n=5: Scale bar=50 μm). […] Quantification of OPCs viability following a 72 hours incubation with or without 8 μg/ml clusterin (n=11). […]

OPCs [4] = experiment: OPC viability, CCK8 assay; type: cell-based, mouse; details: clusterin 8 μg/ml, 72 hours
Method: as §2, §3

OPCs [5] = experiment: OPC differentiation into oligodendrocytes, myelin marker expression by qPCR; type: cell-based, mouse; details: differentiating conditions, 3 days
Method: FIGS. 13A-13G: Exogenous clusterin inhibits OPC differentiation. Expression of Mbp (FIG. 13A), Plp1 (FIG. 13B), Cnp (FIG. 13C), and Myrf (FIG. 13D), measured by qPCR in OPCs or OLGs treated with vehicle or 8 μg/ml of clusterin for 72 hours (n=7). Representative images (FIG. 13E) and quantification (FIG. 13F) of MBP expression in cells treated with or without 8 μg/ml of clusterin for 72 hours (n=5: Scale bar=50 μm). FIG. 13G. Quantification of OPCs viability following a 72 hours incubation with or without 8 μg/ml clusterin (n=11).
as §1
OPCs were prepared from neurospheres as previously described (Franco et al., 2015) and subsequently switched into differentiating conditions in the presence of recombinant clusterin (8 μg/ml) or vehicle (PBS) for 3 days. […]

Molecule: CN1CCC[C@@H]1CCO[C@](C)(c1ccccc1)c1ccc(Cl)cc1 [Clemastine]
- myelin integrity and memory performance (APP/PS1 model of AD): improved both myelin integrity and memory performance

Molecule: TNFα
- clusterin expression in OPCs by qPCR (FIG. 7) [1]: did not influence clusterin expression
- clusterin expression in OPCs by qPCR (FIG. 12) [1]: failed to induce changes in clusterin expression

Molecule: C=C1[C@@H](C)[C@H]2[C@H](Cc3ccccc3)NC(=O)[C@]23[C@H](OC(C)=O)/C=C/[C@@](C)(O)C(=O)[C@@H](C)C/C=C/[C@H]3[C@@H]1O [Cytochalasin D]
- effect of phagocytosis block on Aβ-induced clusterin upregulation in OPCs ([1]; CytoD 1 μM with 3 μM Aβ, 4 hours): prevented Aβ from increasing clusterin production in OPCs
- effect of phagocytosis block on clusterin upregulation by myelin debris or apoptotic cells in OPCs ([1]; 4 hours): internalization of the cargo is necessary to mediate the upregulation of clusterin
- effect of phagocytosis block on clusterin upregulation by myelin debris or apoptotic cells in OPCs ([1]; 4 hours, listed as CytoD): abrogated

Molecule: CC/C(=C(\c1ccccc1)c1ccc(OCCN(C)C)cc1)c1ccccc1 [tamoxifen]
- percent of OPCs expressing YFP (OPCs (OLIG2+/PDGFRα+)): 95%

Molecule: Custirsen: ASO targeting clusterin in Phase 3 clinical trial; OGX-011 is 5-CAGCAGCAGAGTCTTCATCAT-3′ (SEQ ID NO: 11) (listed as DNA, chemistry not given here; listed as Homo sapiens)
- levels of clusterin in patients (clusterin): safely and effectively reduce levels of clusterin

Molecule: O=C(NN=C1CCCCC1)C(=O)NN=C1CCCCC1 [Cuprizone]
- clusterin expression in the corpus callosum [2]: upregulated

Molecule: clusterin: recombinant clusterin, a secreted chaperone protein, containing an HIS-tag, added exogenously to OPCs
- secretion of growth factors and cytokines by OPCs (IL-9 secretion by OPCs): altered secretion of multiple proteins
- IL-9 secretion by OPCs (IL-9 secretion by OPCs; 1-3 days): marked reduction; also recorded: blocked IL-9 release from OPCs
- percentage of MBP positive oligolineage cells (immunofluorescence) (OPCs [3]): decrease; also recorded: fewer MBP-positive oligodendrocytes
- OPC viability (OPCs [4]): did not impact OPC viability; also recorded: not due to OPC death
- Expression of myelin markers (Mbp, Plp, Cnp, and Myrf) as determined by qPCR (OPCs [5]; recombinant clusterin 8 μg/ml vs vehicle (PBS)): decreased; also recorded: striking decrease; also recorded: blocks OPC differentiation

Molecule: IL-9: interleukin 9 cytokine added exogenously (100 ng/ml) to differentiating OPCs
- Expression of Mbp, Plp, and Myrf by qPCR in clusterin-treated OPCs supplemented with IL-9 (OPCs [5]; IL-9 100 ng/ml plus clusterin 8 μg/ml): prevented clusterin inhibition; also recorded: restored expression of these mature oligodendrocyte genes to a level similar as the untreated control

Molecule: OO [H2O2]
- clusterin expression in OPCs by qPCR (FIG. 7) [1]: did not influence clusterin expression
- clusterin expression in OPCs by qPCR (FIG. 12) [1]: failed to induce changes in clusterin expression

B1: IFNγ: cytokine upregulated in Alzheimer's disease, 10 ng/ml (protein, UniProt P01579 24-161, looked up)
Interferon gamma: QDPYVKEAENLKKYFNAGHSDVADNGTLFLGILKNWKEESDRKIMQSQIVSFYFKLFKNFKDDQSIQKSVETIKEDMNVKFFNSNKKKRDDFEKLTNYSVTDLNVQRKAIHELIQVMAELSPAAKTGKRKRSQMLFRG
- clusterin expression in OPCs by qPCR (FIG. 12) [1]: failed to induce changes in clusterin expression

Source: patent publication US20250283074A1, “CLUSTERIN OVEREXPRESSION IN ALZHEIMER’S DISEASE” (University of Virginia Patent Foundation, priority 2021, published 2025)
